The record followed here is PubChem BioAssay AID504839 (Johns Hopkins Ion Channel Center, 2011).

In general, IC50 refers to the point on the concentration scale where inhibition reaches its midpoint.

The experiment has as its target Potassium voltage-gated channel subfamily KQT member 2 (Rattus norvegicus) (UniProt O88943). The experiment in a line: PubChem AID 504839. The note with it: KCNQ2-CHO cells, automated patch clamp current.

Sequence of Potassium voltage-gated channel subfamily KQT member 2 (Rattus norvegicus) (O88943 whole entry, looked up): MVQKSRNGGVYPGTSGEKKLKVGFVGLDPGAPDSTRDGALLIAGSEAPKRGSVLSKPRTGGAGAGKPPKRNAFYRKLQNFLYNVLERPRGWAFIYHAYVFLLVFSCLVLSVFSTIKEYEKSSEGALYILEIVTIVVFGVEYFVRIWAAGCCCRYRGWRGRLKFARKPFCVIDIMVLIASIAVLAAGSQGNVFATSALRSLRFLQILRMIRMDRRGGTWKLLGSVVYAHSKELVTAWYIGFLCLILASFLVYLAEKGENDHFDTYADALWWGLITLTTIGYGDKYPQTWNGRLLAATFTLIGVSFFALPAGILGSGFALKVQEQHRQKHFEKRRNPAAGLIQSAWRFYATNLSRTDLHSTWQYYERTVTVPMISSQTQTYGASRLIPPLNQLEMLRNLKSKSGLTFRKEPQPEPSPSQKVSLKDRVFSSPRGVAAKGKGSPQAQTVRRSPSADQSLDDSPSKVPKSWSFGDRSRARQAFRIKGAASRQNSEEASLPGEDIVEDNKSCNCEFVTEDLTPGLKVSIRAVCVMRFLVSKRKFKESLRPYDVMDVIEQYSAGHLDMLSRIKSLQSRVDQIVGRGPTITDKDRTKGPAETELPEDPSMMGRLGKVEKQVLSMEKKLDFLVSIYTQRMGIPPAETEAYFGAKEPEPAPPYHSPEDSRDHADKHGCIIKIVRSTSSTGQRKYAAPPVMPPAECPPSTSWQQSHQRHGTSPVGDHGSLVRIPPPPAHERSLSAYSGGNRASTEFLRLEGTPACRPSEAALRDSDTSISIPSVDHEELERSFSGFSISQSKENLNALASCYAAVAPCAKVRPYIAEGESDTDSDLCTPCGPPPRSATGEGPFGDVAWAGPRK

On to `CCC(C(=O)Nc1ccccc1N1CCCC1)c1ccccc1` (stereo unspecified), for which the IC50 is 0.16 µM.
